What was measured:
[1] = Tested for the 50% inhibition level against [125I]- gastrin binding to guinea pig gastric glands; format: functional, tissue-based, Cavia porcellus, Stomach
[2] = target: T1, Gastrin/cholecystokinin type B receptor (Rattus norvegicus, UniProt P30553); experiment: Tested for the 50% inhibition level against [125I]- gastrin binding in AR42J cells; format: cell-based, AR-42J
T1 sequence (P30553 whole entry): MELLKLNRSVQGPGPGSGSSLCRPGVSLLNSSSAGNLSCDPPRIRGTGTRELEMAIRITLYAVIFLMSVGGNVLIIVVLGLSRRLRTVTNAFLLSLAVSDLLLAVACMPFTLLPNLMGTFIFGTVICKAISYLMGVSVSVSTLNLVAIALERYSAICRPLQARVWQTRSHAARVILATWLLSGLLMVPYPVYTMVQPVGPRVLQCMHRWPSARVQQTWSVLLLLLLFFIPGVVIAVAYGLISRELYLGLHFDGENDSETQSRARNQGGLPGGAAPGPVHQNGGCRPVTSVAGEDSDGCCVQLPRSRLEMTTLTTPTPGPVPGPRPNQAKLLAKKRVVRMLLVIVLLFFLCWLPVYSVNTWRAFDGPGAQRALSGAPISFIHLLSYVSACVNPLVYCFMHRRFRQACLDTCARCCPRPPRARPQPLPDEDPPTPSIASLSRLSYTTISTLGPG

| EC50 [1] | EC50 [2] | Compound |
| --- | --- | --- |
| 0.6 µM | – | CSCC[C@H](NC(=O)[C@H](Cc1c[nH]c2ccccc12)NC(=O)CNC(=O)[C@H](Cc1ccc(O)cc1)NC(=O)[C@H](C)NC(=O)[C@H](CCC(=O)O)NC(=O)[C@H](CCC(=O)O)NC(=O)[C@H](CCC(=O)O)NC(=O)[C@H](CCC(=O)O)NC(=O)[C@H](CCC(=O)O)NC(=O)[C@H](CC(C)C)NC(=O)[C@H](Cc1c[nH]c2ccccc12)NC(=O)[C@@H]1CCCN1C(=O)CNC(=O)[C@@H](N)CCC(=O)O)C(=O)N[C@@H](CC(=O)O)C(=O)N[C@@H](Cc1ccccc1)C(N)=O [GASTRIN] |
| 63 µM | 200 µM | O=C(CCC(=O)N(Cc1ccccc1)/N=N/CCCl)NCCC(=O)NC(Cc1c[nH]c2ccccc12)C(=O)O (stereo not drawn) |
